Results on 29 compounds are retold here after patent publication US11000511B2, “Chemical compounds as antibiotics” (priority 2017, dated 2021).

The target of assay [1] is T1, purified LasB protein from P. aeruginosa (Pseudomonas aeruginosa, UniProt P14756).
T1 construct: purchased Merck or Charles River Laboratories
Kind of assay: Fluorometric assay to determine Ki (Assay 1). The settings on record: Ki (μM) Assay 1, purified LasB, substrate Abz-Ala-Gly-Leu-Ala-p-Nitro-Benzyl-Amide 250 μM, Ki calculated from IC50; inhibitor 0.006 to 200 μM. Type of assay: biochemical. Put shortly: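 Purified LasB (10 to 140 ng/ml) with 250 μM Abz-Ala-Gly-Leu-Ala-p-nitrobenzylamide in 50 mM Tris-HCl pH 7.4, 2.5 mM CaCl2, 0.01% Triton X100; hydrolysis read by fluorescence (Ex 340/Em 415 nm) over 30 min at 37° C. Inhibitor 2-fold series, 0.006–200 μM (Assay 1) or 0.0016–200 μM (Assay 2); IC50 converted to Ki via Ki=IC50/(1+[S]/Km), Km=214 μM.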

Assay [2] addresses T2, LasB elastase activity in dialysed supernatant from P. aeruginosa strain PA01 (Pseudomonas aeruginosa, UniProt P14756).
T2 construct: uses as source of enzyme dialysed supernatant from P. aeruginosa; endogenous in cells; host or cells: P. aeruginosa strain PA01 culture supernatant, filtered and dialysed
Kind of assay: Elastin Congo Red assay to determine % inhibition (Assay 1). Format: biochemical. As to conditions: read-out: Elastin hydrolysis % inhibition @ 50/25 μM inhibitor concentration Assay 1. In outline:
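Enzyme source: PA01 culture supernatant (19 h growth), filtered and dialysed into 50 mM Tris pH 7.4, 2.5 mM CaCl2. Mixed 1:1 with Elastin Congo Red (20 mg/mL) plus 0.01% Triton X-100 and compound (routinely 50 and 25 μM), 24 h at 37 °C shaking. Dye release at OD520 gives % inhibition versus DMSO.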

T2 sequence (P14756 198-498): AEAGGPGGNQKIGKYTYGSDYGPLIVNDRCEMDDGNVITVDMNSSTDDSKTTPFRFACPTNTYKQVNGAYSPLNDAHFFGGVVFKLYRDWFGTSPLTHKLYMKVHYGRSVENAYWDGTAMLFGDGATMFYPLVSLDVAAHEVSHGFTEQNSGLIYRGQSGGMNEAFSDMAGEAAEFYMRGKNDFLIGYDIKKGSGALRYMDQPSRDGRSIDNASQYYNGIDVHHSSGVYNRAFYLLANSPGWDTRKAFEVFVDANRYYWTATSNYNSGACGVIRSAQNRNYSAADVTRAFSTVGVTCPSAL
T1 sequence (P14756 198-498): as above

Regarding `NC(=O)[C@H](Cc1c[nH]c2ccccc12)NC(=O)C1(CC(=O)O)Cc2ccccc2C1` [Example 52, (S)-2-(2-((1-amino-3-(1H-indol-3-yl)-1-oxopropan-2-yl)carbamoyl)-2,3-dihydro-1H-inden-2-yl)acetic acid], the Ki in assay [1] was less than 0.3 µM. Besides, the inhibition at 50 µM in assay [2] is more than 60%.
The like results for `C[N+](C)(C)C1CN(c2ccc3sc(CNC(=O)C4(CC(=O)[O-])Cc5ccccc5C4)nc3c2)C1` [Example 75, 2-[2-[[5-[3-(trimethylammonio)azetidin-1-yl]-1,3-benzothiazol-2-yl]methylcarbamoyl]indan-2-yl]acetate] were, in that order, 0.3 to 2 µM and more than 60%.
For the compound `NC(=O)[C@H](Cc1ccc(O)cc1)NC(=O)C1(CC(=O)O)Cc2ccccc2C1` [Example 48, (S)-2-(2-((1-amino-3-(4-hydroxyphenyl)-1-oxopropan-2-yl)carbamoyl)-2,3-dihydro-1H-inden-2-yl)acetic acid], in assay [1], the Ki is 2 to 10 µM. Further, the inhibition at 50 µM in assay [2] is 30 to 60%.
Turning to `Cn1c(CNC(=O)C2(CC(=O)O)Cc3ccccc3C2)nc2ccccc21` [Example 56, 2-(2-(((1-methyl-1H-benzo[d]imidazol-2-yl)methyl)carbamoyl)-2,3-dihydro-1H-inden-2-yl)acetic acid], the inhibition constant (Ki) in assay [1] was 0.3 to 2 µM. The inhibition at 50 µM in assay [2] was 30 to 60%.
`O=C(O)CC1(C(=O)NCc2cc3ccccc3o2)Cc2ccccc2C1` [Example 5, 2-(2-{[(1-Benzofuran-2-yl)methyl]carbamoyl}-2,3-dihydro-1H-inden-2-yl)acetic acid]: the Ki in assay [1] was 0.3 to 2 µM. Further, the inhibition at 50 µM in assay [2] was 30 to 60%.
On to `CN1CCN(c2ccc3sc(CNC(=O)C4(CC(=O)O)Cc5ccccc5C4)nc3c2)CC1` [Example 106, 2-[2-[[5-(4-methylpiperazin-1-yl)-1,3-benzothiazol-2-yl]methylcarbamoyl]indan-2-yl]acetic acid], for which the Ki in assay [1] was less than 0.3 µM. The inhibition at 50 µM in assay [2] was more than 60%.
Take `O=C(O)CC1(C(=O)NCc2nc3c(Br)cccc3s2)Cc2ccccc2C1` [Example 61, 2-(2-(((4-bromobenzo[d]thiazol-2-yl)methyl)carbamoyl)-2,3-dihydro-1H-inden-2-yl)acetic acid]: the inhibition constant Ki in assay [1] is less than 0.3 µM. For the same compound, the inhibition at 50 µM in assay [2] is more than 60%.
For `NCCNc1ccc2nc(CNC(=O)C3(CC(=O)O)Cc4ccccc4C3)sc2c1` [Example 69, 2-[2-[[6-(2-aminoethylamino)-1,3-benzothiazol-2-yl]methylcarbamoyl]indan-2-yl]acetic acid], the Ki in assay [1] was 0.3 to 2 µM. Also, in assay [2], the inhibition at 50 µM is more than 60%.
In the case of `CN(C)CCc1ccc2nc(CNC(=O)C3(CC(=O)O)Cc4ccccc4C3)sc2c1` [Example 95, 2-[2-[[6-[2-(dimethylamino)ethyl]-1,3-benzothiazol-2-yl]methylcarbamoyl]indan-2-yl]acetic acid], the Ki in assay [1] was 0.3 to 2 µM. The inhibition at 50 µM in assay [2] lay in the range of 30 to 60%.
Turning to `O=C(O)CC1(C(=O)NC2CCN(c3cccc(Cl)c3)C2)Cc2ccccc2C1` (stereo not shown) [Example 8, 2-[2-[[1-(3-chlorophenyl)pyrrolidin-3-yl]carbamoyl]indan-2-yl]acctic acid], in assay [1], the Ki was less than 0.3 µM. Besides, the inhibition at 50 µM in assay [2] was more than 60%.
In the case of `CC(NC(=O)C1(CC(=O)O)Cc2ccccc2C1)c1cc2ccccc2o1` (single isomer, unassigned) [Example 58, 2-[2-[[(1R*)-1-(benzofuran-2-yl)ethyl]carbamoyl]indan-2-yl]acetic acid], the Ki in assay [1] is 2 to 10 µM. Also, in assay [2], the inhibition at 50 µM lay within 30 to 60%.
Turning to `O=C(O)CC1(C(=O)N[C@H](CO)Cc2c[nH]c3ccccc23)Cc2ccccc2C1` [Example 33, (2-{[(2S)-1-hydroxy-3-(1H-indol-3-yl)propan-2-yl]carbamoyl}-1,3-dihydroinden-2-yl)acetic acid], the Ki in assay [1] was 0.3 to 2 µM. Further, in assay [2], the inhibition at 50 µM fell in the range of 30 to 60%.
The like results for `O=C(O)CC1(C(=O)NCc2nc3c(F)cccc3s2)Cc2ccccc2C1` [Example 60, 2-(2-(((4-fluorobenzo[d]thiazol-2-yl)methyl)carbamoyl)-2,3-dihydro-1H-inden-2-yl)acetic acid] were, in that order, less than 0.3 µM and more than 60%.
Regarding `CN(C)CCCc1ccc2nc(CNC(=O)C3(CC(=O)O)Cc4ccccc4C3)sc2c1` [Example 36, 2-[2-[[6-[3-(dimethylamino)propyl]-1,3-benzothiazol-2-yl]methylcarbamoyl]indan-2-yl]acetic acid], the Ki in assay [1] was less than 0.3 µM. Further, the inhibition at 50 µM in assay [2] is more than 60%.
In the case of `O=C(O)CC1(C(=O)NCc2cc3ccccc3[nH]2)Cc2ccccc2C1` [Example 29, 2-[2-(1H-indol-2-ylmethylcarbamoyl)indan-2-yl]acetic acid], the Ki in assay [1] was less than 0.3 µM. In assay [2], the inhibition at 50 µM is 30 to 60%.
As to `NC1CN(c2ccc3nc(CNC(=O)C4(CC(=O)O)Cc5ccccc5C4)sc3c2)C1` [Example 100, 2-[2-[[6-(3-aminoazetidin-1-yl)-1,3-benzothiazol-2-yl]methylcarbamoyl]indan-2-yl]acetic acid], the Ki in assay [1] was less than 0.3 µM. Besides, the inhibition at 50 µM in assay [2] was more than 60%.
In the case of `N[C@@H]1CCN(c2ccc3nc(CNC(=O)C4(CC(=O)O)Cc5ccccc5C4)sc3c2)C1` [Example 102, 2-[2-[[6-[(3R)-3-aminopyrrolidin-1-yl]-1,3-benzothiazol-2-yl]methylcarbamoyl]indan-2-yl]acetic acid], the Ki in assay [1] is less than 0.3 µM. Moreover, the inhibition at 50 µM in assay [2] was more than 60%.
Take `O=C(O)CC1(C(=O)NCCc2c[nH]c3ccccc23)Cc2ccccc2C1` [Example 14, 2-[2-[2-(1H-indol-3-yl)ethylcarbamoyl]indan-2-yl]acetic acid]: in assay [1], the Ki is less than 0.3 µM. Further, the inhibition at 50 µM in assay [2] fell in the range of 30 to 60%.
For `O=C(O)CC1(C(=O)NCc2nc3ccccc3[nH]2)Cc2ccccc2C1` [Example 51, 2-(2-(((1H-benzo[d]imidazol-2-yl)methyl)carbamoyl)-2,3-dihydro-1H-inden-2-yl)acetic], in that order: 2 to 10 µM and 15 to 30%.
Turning to `COc1ccc2sc(CNC(=O)C3(CC(=O)O)Cc4ccccc4C3)nc2c1` [Example 24, 2-[2-[(5-methoxy-1,3-benzothiazol-2-yl)methylcarbamoyl]indan-2-yl]acetic acid], the Ki in assay [1] is less than 0.3 µM. Further, the inhibition at 50 µM in assay [2] is more than 60%.
For `C[N+](C)(C)CCNC(=O)[C@H](Cc1c[nH]c2ccccc12)NC(=O)C1(CC(=O)O)Cc2ccccc2C1` [Example 46, (2-{[(1S)-2-(1H-indol-3-yl)-1-{[2-(trimethylammonio)ethyl]carbamoyl}ethyl]carbamoyl}-1,3-dihydroinden-2-yl)acetate], in that order: 2 to 10 µM and 30 to 60%.
Consider `C[N+](C)(C)CCOc1ccc2nc(CNC(=O)C3(CC(=O)[O-])Cc4ccccc4C3)sc2c1` [Example 111, 2-[2-[[6-[2-(trimethylammonio)ethoxy]-1,3-benzothiazol-2-yl]methylcarbamoyl]indan-2-yl]acetate], for which the Ki in assay [1] was 0.3 to 2 µM. For the same compound, the inhibition at 50 µM in assay [2] fell in the range of 30 to 60%.
Regarding `Cc1oc2ccccc2c1CNC(=O)C1(CC(=O)O)Cc2ccccc2C1` [Example 20, 2-[2-[(2-methylbenzofuran-3-yl)methylcarbamoyl]indan-2-yl]acetic acid], in assay [1], the Ki is 2 to 10 µM. Moreover, the inhibition at 50 µM in assay [2] is 30 to 60%.
For `Cn1cc(CNC(=O)C2(CC(=O)O)Cc3ccccc3C2)cn1` [Example 3, 2-[2-[(1-methylpyrazol-4-yl)methylcarbamoyl]-indan-2-yl]acetic acid], the Ki in assay [1] was 2 to 10 µM. In assay [2], the inhibition at 50 µM lay in the range of 30 to 60%.
As to `O=C(O)CC1(C(=O)NCCc2nc3ccccc3[nH]2)Cc2ccccc2C1` [Example 12, 2-[2-[2-(1H-benzimidazol-2-yl)ethylcarbamoyl]indan-2-yl]acetic acid], the Ki in assay [1] was 2 to 10 µM. For the same compound, in assay [2], the inhibition at 50 µM lay within 15 to 30%.
For `O=C(O)CC1(C(=O)NCCc2cc3ccccc3s2)Cc2ccccc2C1` [Example 30, 2-[2-[2-(benzothiophen-2-yl)ethylcarbamoyl]indan-2-yl]acetic acid], in that order: 2 to 10 µM and 15 to 30%.
In the case of `O=C(O)CC1(C(=O)NCc2cc3cc(Br)ccc3o2)Cc2ccccc2C1` [Example 18, 2-[2-[(5-bromobenzofuran-2-yl)methylcarbamoyl]indan-2-yl]acetic acid], the inhibition constant Ki in assay [1] is less than 0.3 µM. Also, the inhibition at 50 µM in assay [2] was more than 60%.
In the case of `N[C@@H]1CCN(c2ccc3sc(CNC(=O)C4(CC(=O)O)Cc5ccccc5C4)nc3c2)C1` [Example 104, 2-[2-[[5-[(3R)-3-aminopyrrolidin-1-yl]-1,3-benzothiazol-2-yl]methylcarbamoyl]indan-2-yl]acetic acid], the inhibition constant (Ki) in assay [1] is 0.3 to 2 µM. Further, the inhibition at 50 µM in assay [2] was more than 60%.
On to `CN(C)CCCc1ccc2sc(CNC(=O)C3(CC(=O)O)Cc4ccccc4C3)nc2c1` [Example 89, 2-[2-[[5-[3-(dimethylamino)propyl]-1,3-benzothiazol-2-yl]methylcarbamoyl]indan-2-yl]acetic acid], for which, in assay [1], the inhibitory constant (Ki) is 0.3 to 2 µM. In addition, the inhibition at 50 µM in assay [2] is more than 60%.

As a reminder, the Ki is the dissociation constant of the complex between target and ligand, obtained from inhibition or displacement.
